Assay results reported in BigSolDB 2.1.

CC(C)(C#N)N=NC(C)(C)C#N
Conditions	solubility (mole fraction)
in acetone, 278.15 K	0.0518
in acetone, 283.45 K	0.062
in acetone, 288.75 K	0.0741
in acetone, 293.05 K	0.0881
in acetone, 297.85 K	0.106
in acetone, 302.95 K	0.127
in acetone, 307.95 K	0.145
in acetone, 312.75 K	0.176
in acetone, 318.05 K	0.209
in acetone, 322.75 K	0.236
in benzene, 279.25 K	0.0254
in benzene, 283.75 K	0.0311
in benzene, 290.05 K	0.0411
in benzene, 293.65 K	0.049
in benzene, 298.05 K	0.0603
in benzene, 303.25 K	0.077
in benzene, 307.95 K	0.0938
in benzene, 312.65 K	0.119
in benzene, 317.65 K	0.151
in benzene, 322.25 K	0.181
in ethanol, 278.55 K	0.00263
in ethanol, 284.35 K	0.00408
in ethanol, 288.95 K	0.00511
in ethanol, 293.15 K	0.00667
in ethanol, 297.85 K	0.00938
in ethanol, 302.95 K	0.0128
in ethanol, 307.65 K	0.0165
in ethanol, 312.55 K	0.0221
in ethanol, 317.65 K	0.0314
in ethanol, 322.55 K	0.0427
in ethyl acetate, 278.15 K	0.0349
in ethyl acetate, 282.85 K	0.0424
in ethyl acetate, 287.75 K	0.053
in ethyl acetate, 293.65 K	0.0669
in ethyl acetate, 298.35 K	0.0821
in ethyl acetate, 303.15 K	0.0959
in ethyl acetate, 307.85 K	0.119
in ethyl acetate, 312.95 K	0.144
in ethyl acetate, 317.95 K	0.175
in ethyl acetate, 322.95 K	0.206
in methanol, 268.15 K	0.0034
in methanol, 273.15 K	0.00441
in methanol, 278.15 K	0.00567
in methanol, 283.15 K	0.00738
in methanol, 288.15 K	0.00942
in methanol, 293.15 K	0.0124
in methanol, 298.15 K	0.0162
in methanol, 303.15 K	0.0212
in methanol, 308.15 K	0.0277
in methanol, 313.15 K	0.0364
in methanol, 318.15 K	0.0479
in methanol, 323.15 K	0.0637
